Results as given in ChEMBL document CHEMBL3507680, “University of Dundee, Gates Library screen for HepG2 cell viability”.

assay: Human HepG2 cell viability assay in 384 well format; format: toxicity, cell-based; parameters: dose 125 nL, time 70.5 hour; cytotoxicity at 70.5 h: concentration not given beside the values; conditions: HepG2 cells, read-out: Inhibition

| Compound | cytotoxicity at 70.5 h [%] |
| --- | --- |
| Cc1nc(C2CCCN(C(=O)c3ccncc3)C2)c2sccn12 (configuration not stated) | 21.5 |
| CNC(=O)C1(C)CN(c2nc(C)cc(C)n2)CCO1 (configuration not stated) | 1.44 |
| O=C(C1CC1)N1Cc2[nH]nc(COCc3cccnc3)c2C1 | -0.809 |
| CC(=O)N1N=C(c2ccccc2)OC1C(=O)N(C)CCc1ccccc1 (configuration not stated) | 20 |
| CCCOCCCNc1nccc(-c2cn(C)nc2C)n1 | -4.32 |
| CC(C)Oc1ncnc2c1CCN(c1cc(C(F)(F)F)ncn1)CC2 | 4.68 |
| Cc1cnn(CC2CCCCN2CCCS(=O)(=O)N(C)C)c1 (configuration not stated) | 18.7 |
| CCn1ncc2c1CCCC2NCc1cc(OC)cc(OC)c1 (configuration not stated) | -9.39 |
| O=C(c1cccnc1)N1CCC2(CC1)COC(COc1ccccn1)C2 (configuration not stated) | -11.7 |
| CC(NC(=O)c1cccnc1N(C)C)c1ccccc1Br (configuration not stated) | 20.1 |
| O=C(c1cccn1Cc1cccs1)N1CCSCC1 | 25 |
| CSc1ccc(CNC(=O)C2CC(=O)N(C(C)(C)C)C2)cc1 (configuration not stated) | -3.39 |
| Cc1ncc(S(=O)(=O)Nc2ccnn2C2CCCCC2)[nH]1 | -1.01 |
| COCCNC(=O)C1(c2ccc(C)c(OC)c2)CCCC1 | -10.9 |
| CN(C)CCNC(=O)c1cc2n(n1)CCN(C(=O)c1ccc[nH]1)C2 | -7.1 |
| Cc1nsc(C(=O)NCCc2ccccc2)n1 | -8.39 |
| CN(C(=O)CSc1ncc[nH]1)c1ccccc1 | 31.6 |
| Cc1nnn2c1COCC(CNC(=O)c1ccc3[nH]ccc3c1)C2 (configuration not stated) | -9.06 |
| CC(=O)Nc1nc(COc2nc(C)no2)cs1 | 24.6 |
| CN(C(=O)c1ccc(S(=O)(=O)NC(C)(C)C)cc1)C1(C#N)CCC1 | -17.4 |
| O=C(Cc1cccc(Cl)c1)Nc1cnccc1SCCCO | -6.16 |
| Cn1cnc2c1C(C(=O)N1CCCC1)N(CC1CC1)CC2 (configuration not stated) | -9.9 |
| O=C([C@H]1CCCO1)N1Cc2nccn2CC(COc2cccnc2)C1 (some centres not stated) | -4.93 |

| Compound | cytotoxicity at 70.5 h [%] |
| --- | --- |
| Cc1c(COC(C)C)cccc1NC(=O)N1CCCC(CO)C1 (configuration not stated) | -3.17 |
| COc1ccnc(N2CCN(C(=O)c3ccc(Cl)o3)CC2)n1 | -4.43 |
| COc1cccc2c1N(C(=O)c1ccc(C)nc1)CCC2 | 4.1 |
| O=C(C1CCOCC1)N1CCC2(CCC(C(=O)N3CCCC3)O2)CC1 (configuration not stated) | -6.14 |
| CNC(=O)CN1CCC(NC(=O)C(C)Oc2ccccc2C#N)CC1 (configuration not stated) | -3.18 |
| c1cc(-c2ccc3c(c2)C2(CCNCC2)CC3)ccn1 | 50.6 |
| O=C(c1cscn1)N1CCO[C@H]2[C@@H](Oc3ccccn3)CC[C@@H]21 | -10.4 |
| CC(C)[C@@H](N)C(=O)NCc1cccnc1N1CCc2ccccc2C1 | -4.97 |
| CC(C)NC(=O)C1CCc2nnc(CNC(=O)C3CC3)n21 (configuration not stated) | -6.43 |
| COCC(=O)NC(c1ccccc1)c1ccc2c(c1)CCCO2 (configuration not stated) | -16.4 |
| CC(=O)c1cc(C(=O)N2CCN(C)Cc3ccccc32)n(C)c1 | -3 |
| CC(C)N1CCOCC2(CCCN(C(=O)CCc3cccnc3)C2)C1 (configuration not stated) | -6.39 |
| O=C(NC[C@H]1C[C@@H]2CN(C(=O)c3ccno3)C[C@@H]2O1)C1CCC1 | -11.5 |
| Cc1ncsc1CN1CCOC(C)(C(=O)N2CCOCC2)C1 (configuration not stated) | -2.94 |
| Cc1nc(S(=O)(=O)N2CCC3(CCCCC3)C2)cn1C | -1.45 |
| CC(C)=CCN1CCN(C(=O)c2cc(C(C)C)on2)[C@H]2CS(=O)(=O)C[C@H]21 | -8.01 |
| CCOc1cccc(NS(=O)(=O)c2cc(C)c(C(=O)O)s2)c1 | 8.89 |
| Cc1ccc(-c2nnc(CN3CCOCC(CO)C3)o2)n1C (configuration not stated) | -3.57 |
| CCSc1nnc(CCNC(=O)OC(C)(C)C)o1 | 13 |
| Cc1cnn(C2CN(CC(O)COc3ccc(C#N)cc3)C2)c1 (configuration not stated) | -3.3 |
| COCCN1C[C@@H](C)[C@@]2(COCCN(C(=O)Cc3ccccc3)C2)C1 | -23 |
| CC(=O)OCC1CCCCN1C(=O)c1ccc(Cn2ccnc2)o1 (configuration not stated) | 22.8 |
| COc1ccccc1-c1cc(C(=O)N(C)C)c2cnn(C)c2n1 | -11.2 |

| Compound | cytotoxicity at 70.5 h [%] |
| --- | --- |
| CCC(C)(C)NC(=O)Nc1nnc(-c2ccccn2)s1 | -10.1 |
| CCS(=O)(=O)N1CCC(c2nccn2Cc2ccccn2)CC1 | -5.3 |
| CC(C)COC(C)C(=O)NCCNC(=O)C(C)C (configuration not stated) | -1.79 |
| Cn1cnc2cc(C(=O)N3CCN(CCO)[C@@H]4CS(=O)(=O)C[C@@H]43)ccc21 | -0.937 |
| Cc1n[nH]c(C2CN(C(=O)COCC(F)(F)F)CCO2)n1 (configuration not stated) | -5.9 |
| O=C(NCCN1CCC(c2cccs2)CC1)c1ccccc1C(F)(F)F | 1.14 |
| CN1Cc2ccccc2CC2(CCN(C(=O)N3CCOCC3)CC2)C1=O | 24.7 |
| CC(C)(C)OC(=O)N1CCCN(c2nnc(C3CC3)s2)CC1 | -0.941 |
| CCn1[nH]c(C)c2c(C(F)(F)C(F)(F)F)cc(=O)nc1-2 | -1.83 |
| Cc1cc(Br)oc1C(=O)N1CCN(CC(N)=O)CC1 | -1.55 |
| CC(C(=O)N1CCCN(Cc2ccc(C#N)cc2)CC1)n1ccnc1 (configuration not stated) | 0.793 |
| O=C(CCN1C(=O)CCC1=O)NCC1(c2c(F)cccc2F)CCCC1 | -11.2 |
| CC(=O)N1CCC(c2noc(C3CCC(=O)N3)n2)CC1 (configuration not stated) | 16.7 |
| CC1CCN(CC(O)CNc2ccccn2)CC1 (configuration not stated) | -6.21 |
| CCC(=O)Nc1cccc(OCC(=O)N2C[C@H]3CC[C@H]2C3)c1 | -18.9 |
| Cn1nc(COCC2CC2)c2c1CCN(Cc1ccco1)C2 | -9.54 |
| CNC(=O)[C@H]1C[C@@H]2CN(C(=O)c3cccnc3)C[C@@H]2N1S(C)(=O)=O | -11.1 |
| CC(=O)c1cn(CCC(=O)Nc2c3c(nn2C)CSC3)c2ccccc12 | 14.7 |
| Cc1cccc(N2CCC(NC(=O)CCCc3cccs3)CC2)n1 | -2.62 |
| O=C(Nc1cccnc1)[C@@H]1CCO[C@@H]2CCN(Cc3cccnc3)C[C@@H]21 | -22.1 |
| Cc1cc(C2CCCN2Cc2nnc(-c3ccco3)o2)on1 (configuration not stated) | -8.06 |
| CSc1ncccc1C(=O)NCc1ccc(CS(=O)(=O)NC(C)C)cc1 | 2.32 |
| O=C1CCSCC(C(=O)N2CCCCC2)N1 (configuration not stated) | -0.797 |

| Compound | cytotoxicity at 70.5 h [%] |
| --- | --- |
| Cc1cc(C(=O)N2C[C@@H]3[C@@H](CN(C)CCc4ccccn4)[C@@H]3C2)c(C)o1 | 25.1 |
| O=C(c1cccc(F)c1)N(CCCO)S(=O)(=O)c1cccs1 | -8.04 |
| O=C1CCc2cc(OCCN3CCc4cncnc4C3)ccc2N1 | -3.56 |
| Cc1ncsc1CN1C[C@@H](OCC(=O)N(C)C)[C@H]2OCCC[C@H]21 | -11.1 |
| CC(C)c1nc(CN2CCN(CC3CCCO3)CC2)cs1 (configuration not stated) | -2.13 |
| CCC1(CO)CCCN(c2ncccc2C#N)C1 (configuration not stated) | 15.7 |
| Cc1nc2c(c(N3CC=CC3)n1)CCN(Cc1ccoc1)CC2 | -2.75 |
| O=C(c1ccnnc1)N1CCN2C[C@H](Oc3cccnc3)C[C@H]2C1 | -0.791 |
| CC(C)c1ccc(OCCNC(=O)N2CCS(=O)(=O)CC2)cc1 | -2.35 |
| CCn1c(NCc2ccc(OC)cc2)nc2c(C)nn(C)c2c1=O | -6.73 |
| CS(=O)(=O)N1CCC2(CCCN(CCCc3ccccc3)C2=O)C1 (configuration not stated) | -6.93 |
| CCn1cc(NC(=O)NCC(O)COc2ccccc2)cn1 (configuration not stated) | -7.02 |
| O=C(Cn1cccn1)NCC(c1cccs1)N1CCCC1 (configuration not stated) | -11.9 |
| Cc1ccc(-c2cc(CNC(=O)N3CCOC(C)C3)on2)cc1 (configuration not stated) | -6.72 |
| Cc1cc(C(=O)N2CCc3c(CN(C)C)nn(C)c3C2)[nH]n1 | -12.8 |
| Cc1ccc2cc(C(=O)N3CCC(Nc4cccnn4)CC3)[nH]c2c1 | 21.4 |
| O=C(c1cccs1)N1CCN(CC2CC2)c2ncccc2C1 | -21 |
| CN1C(=O)CC2(CCN(S(=O)(=O)N(C)C)CC2)c2ccccc21 | 33.2 |
| CCc1ccc(C(=O)N2CCC(c3nncn3CC)CC2)s1 | -7.92 |
| O=C1CCOC[C@]2(CN(Cc3ccccc3)C[C@H]2c2ccccc2)N1 | 26.7 |
| O=C(c1cc(-c2cccs2)on1)N1CCCCC1Cn1cccn1 (configuration not stated) | -8.41 |
| CCCN1CCC(N(C)C(=O)c2cc(C)nc3cc(F)ccc23)CC1 | -11.9 |
| COCc1ccc(C(=O)N2CCCN(Cc3ccc(F)cc3)CC2)s1 | 30.1 |

| Compound | cytotoxicity at 70.5 h [%] |
| --- | --- |
| Cc1ncc2c(n1)CN(Cc1nc(C)c(C)o1)CC2 | -100 |
| CC(C)c1noc(C[S+]([O-])CC(=O)Nc2cc(F)ccc2F)n1 (configuration not stated) | -3.52 |
| CN(C)c1ncnc2c1CCN(C(=O)c1cccnc1)CC2 | -6.66 |
| CC(C)Cc1cc(C(=O)NCC(O)CN2CCCCCC2)on1 (configuration not stated) | -3.2 |
| Cc1cccc(CN2CCC(Cc3ccccc3F)CC2)n1 | 0.263 |
| O=S(=O)(c1cc(F)ccc1N1CC(n2cccn2)C1)C(F)(F)F | -0.145 |
| CCOC(=O)C1=NOC(Cc2cc(OC)c3c(c2)OCO3)C1 (configuration not stated) | 18.8 |
| CC(C)CCN(C(=O)c1ccc(-n2ncc(C#N)c2N)cc1)C1CC1 | -6.84 |
| Cc1nnsc1C(=O)NCC1CCN(c2ccccn2)CC1 | -8.36 |
| N#CC1COCCN1S(=O)(=O)c1ccc2ccccc2c1 (configuration not stated) | -1.81 |
| Cc1c(NC(=O)CN(C)S(C)(=O)=O)cccc1OC1CCCC1 | -4 |
| CN(C)C(=O)CN1C(=O)C[C@@H]2[C@@H]1CCN2Cc1cccc(C#N)c1 | 6.8 |
| COc1ccccc1-n1nc(-c2ccco2)n(CC(=O)NC(C)C)c1=O | -6.38 |
| O=C(Cc1ccc2c(c1)CCO2)N1CCCC1Cn1cccn1 (configuration not stated) | -4.67 |
| Cc1ncc(CC(=O)N2C[C@@H]3CC[C@H](C2)N(CC2CCC2)C3)c(=O)[nH]1 | -17.8 |
| Cc1cnc(N2CCc3onc(COc4cccnc4)c3C2)nc1 | -3.25 |
| CCc1nc(C2CCCN(C(=O)c3ccc4[nH]cnc4c3)C2)no1 (configuration not stated) | 12.5 |
| O=S(=O)(Cc1cccc(Cl)c1)CC(O)Cn1cccn1 (configuration not stated) | -5.5 |
| O=C(Cc1cccnc1)N1C[C@@H]2CC[C@H](C1)N(Cc1ccccc1)C2=O | -7.37 |
| CN(C)c1ccc(NC(=O)NCc2cccnc2N(C)C)cn1 | -8.32 |
